Reference: patent US11071721B2, “Bicyclic amide compounds and methods of use thereof” (Genentech, Inc., priority 2016, dated 2021)
pKi: −log10 of the molar value.

The molecules below were run against human RIP1 kinase domain (2-375) (Homo sapiens (Human), UniProt Q13546) (assay: RIP1 kinase inhibition assay (Transcreener ADP biochemical enzyme assay)). Conditions: Ki app (Morrison tight-binding fit); 50 nM enzyme, 50 uM ATP, 2 hours incubation, fluorescence polarization.
How it was run: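 Baculovirus-expressed human RIP1 kinase domain (2-375), 50 nM, incubated 2 h with compound in pH 7.5 Hepes with 30 mM MgCl2, 1 mM DTT, 50 uM ATP, 0.5% DMSO. ADP detected by Transcreener fluorescence polarization (antibody/AlexaFluor 633 tracer displacement). Ki^app from Morrison tight-binding fit of fractional activity.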

Sequence of human RIP1 kinase domain (2-375) (Q13546 2-375): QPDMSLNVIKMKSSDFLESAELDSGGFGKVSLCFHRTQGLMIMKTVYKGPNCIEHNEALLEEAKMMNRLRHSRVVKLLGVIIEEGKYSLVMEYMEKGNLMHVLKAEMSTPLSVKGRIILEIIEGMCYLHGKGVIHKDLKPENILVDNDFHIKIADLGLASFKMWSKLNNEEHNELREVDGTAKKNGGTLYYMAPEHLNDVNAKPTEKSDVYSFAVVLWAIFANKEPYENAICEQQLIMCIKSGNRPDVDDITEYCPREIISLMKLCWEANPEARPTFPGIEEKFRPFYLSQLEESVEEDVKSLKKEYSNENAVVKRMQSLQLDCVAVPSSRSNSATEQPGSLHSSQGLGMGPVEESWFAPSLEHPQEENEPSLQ

pKi | SMILES
7.09 | O=C(c1nc2n(n1)[C@@H](c1ccccc1)C[C@H]2F)N1CC2CC2C1 (mixture of isomers) [Example 101, 3-azabicyclo[3.1.0]hexan-3-yl-[rac-(5R, 7R)-7-fluoro-5-phenyl-6,7-dihydro-5H-pyrrolo[1,2-b][1,2,4]triazol-2-yl] methanone]
6.62 | O=C(c1cc2n(n1)C(c1ccccc1)CC2)N1CC(F)(F)C1 (racemic) [Example 102, (3,3-difluoroazetidin-1-yl)-(6-phenyl-5,6-dihydro-4H-pyrrolo[1,2-b]pyrazol-2-yl)methanone]
7.51 | O=C(c1nc2n(n1)[C@@H](c1ccccc1)C[C@H]2F)N1CCC1 (racemic) [Example 104, azetidin-1-yl-[rac-(5R,7R)-7-fluoro-5-phenyl-6,7-dihydro-5H-pyrrolo [1,2-b][1,2,4]triazol-2-yl]methanone]
7.25 | CN(C)C(=O)c1nc2n(n1)[C@@H](c1ccccc1)C[C@H]2F (racemic) [Example 105, rac-(5R,7R)-7-fluoro-N,N-dimethyl-5-phenyl-6,7-dihydro-5H-pyrrolo[1,2-b][1,2,4]triazole-2-carboxamide]
8.10 | O=C(c1nc2n(n1)[C@@H](c1ccccc1)CC2(F)F)N1CC(F)(F)C1 (single isomer, unassigned) [Example 1a]
< 5.00 | O=C(c1nc2n(n1)[C@@H](c1ccccc1)CC2(F)F)N1CC(F)(F)C1 (single isomer, unassigned) [Example 1b]
5.70 | CC[C@@]1(C)OCc2cnc(C(=O)N3CC(F)(F)C3)cc21 (single isomer, unassigned) [Example 7]
< 5.00 | O=C(c1nc2n(n1)[C@H](c1ccccc1F)CC2)N1CC(F)(F)C1 (single isomer, unassigned) [Example 10]
8.05 | O=C(c1nc2n(n1)[C@@H](c1ccccc1F)CC2)N1CC(F)(F)C1 (single isomer, unassigned) [Example 11]
6.86 | O=C(c1nc2n(n1)[C@@H](c1ccccc1F)CC2)N1CCC1 (single isomer, unassigned) [Example 12]
7.18 | O=C(c1nc2n(n1)CC[C@H]2c1ccccc1)N1CC(F)(F)C1 (single isomer, unassigned) [Example 15]
7.32 | CC1(F)CN(C(=O)c2nc3n(n2)[C@@H](c2ccccc2)CC3(F)F)C1 (single isomer, unassigned) [Example 38]
7.15 | O=C(c1nc2n(n1)[C@@H](c1ccccc1)CC2(F)F)N1CC(F)C1 (single isomer, unassigned) [Example 48]
8.30 | O=C(c1nc2n(n1)[C@H](c1ccccc1)C[C@@H]2F)N1CC[C@H]1C(F)F (single isomer, unassigned) [Example 52]
8.30 | C[C@H]1[C@@H](C(F)(F)F)CCN1C(=O)c1nc2n(n1)[C@H](c1ccccc1)C[C@@H]2F (single isomer, unassigned) [Example 86]
5.15 | O=C(c1nc2n(n1)[C@H](c1ccccc1)CC2)N1CC(F)(F)C1 (stereo in doubt) [Example 31, (3,3-difluoroazetidin-1-yl)-[rac-(5S)-5-phenyl-6,7-dihydro-5H-pyrrolo[1,2-b][1,2,4]triazol-2-yl]methanone]
7.18 | O=C(c1nc2n(n1)[C@@H](c1ccccc1)CC2)N1CC(F)(F)C1 (stereo in doubt) [Example 32, (3,3-difluoroazetidin-1-yl)-[rac-(5R)-5-phenyl-6,7-dihydro-5H-pyrrolo[1,2-b][1,2,4]triazol-2-yl]methanone]
7.96 | O=C(c1nc2n(n1)[C@@H](c1ccccc1)C[C@H]2F)N1CCC(F)(F)C1 (stereo in doubt) [Example 54, (3,3-difluoropyrrolidin-1-yl)-[rac-(5R,7R)-7-fluoro-5-phenyl-6,7-dihydro-5H-pyrrolo [1,2-b][1,2,4]triazol-2-yl]methanone]
7.82 | O=C(c1nc2n(n1)[C@@H](c1ccccc1)C[C@H]2F)N1CCn2nccc2C1 (stereo in doubt) [Example 66, 6,7-dihydro-4H-pyrazolo[1,5-a]pyrazin-5-yl-[rac-(5R,7R)-7-fluoro-5-phenyl-6,7-dihydro-5H-pyrrolo[1,2-b][1,2,4]triazol-2-yl]methanone]
8.30 | O=C(c1nc2n(n1)[C@@H](c1ccccc1)C[C@H]2F)N1CCc2cccnc2C1 (stereo in doubt) [Example 67, 6,8-dihydro-5H-1,7-naphthyridin-7-yl-[rac-(5R,7R)-7-fluoro-5-phenyl-6,7-dihydro-5H-pyrollo[1,2-b][1,2,4]triazol-2-yl]methanone]
7.28 | O=C(c1nc2n(n1)[C@H](c1ccccc1)C[C@@H]2F)N1CCn2nccc2C1 (stereo in doubt) [Example 69, 6,7-dihydro-4H-pyrazolo[1,5-a]pyrazin-5-yl-[rac-(5S,7S)-7-fluoro-5-phenyl-6,7-dihydro-5H-pyrrolo[1,2-b][1,2,4]triazol-2-yl]methanone]
7.62 | O=C(c1nc2n(n1)[C@H](c1ccccc1)C[C@@H]2F)N1CCc2cccnc2C1 (stereo in doubt) [Example 74, 6,8-dihydro-5H-1,7-naphthyridin-7-yl-[rac-(5S, 7S)-7-fluoro-5-phenyl-6,7-dihydro-5H-pyrrolo [1,2-b][1,2,4]triazol-2-yl]methanone]
7.51 | O=C(c1nc2n(n1)[C@@H](c1ccccc1)C[C@H]2F)N1CCc2ccccc2C1 (stereo in doubt) [Example 76]
7.44 | O=C(c1nc2n(n1)[C@H](c1ccccc1)C[C@@H]2F)N1CCC(F)(F)C1 (stereo in doubt) [Example 98, (3,3-difluoropyrrolidin-1-yl)-[rac-(5S,7S)-7-fluoro-5-phenyl-6,7-dihydro-5H-pyrrolo [1,2-b][1,2,4]triazol-2-yl]methanone]
7.89 | O=C(c1nc2n(n1)[C@H](c1ccccc1)C[C@@H]2F)N1CCc2ccccc2C1 (stereo in doubt) [Example 99, 3,4-dihydro-1H-isoquinolin-2-yl-[rac-(5S,7S)-7-fluoro-5-phenyl-6,7-dihydro-5H-pyrrolo[1,2-b][1,2,4]triazol-2-yl]methanone]
8.05 | O=C(c1nc2n(n1)[C@H](c1ccccc1)C[C@@H]2F)N1CC(F)(F)C1 [Example 3, (3,3-difluoroazetidin-1-yl)-[(5S,7S)-7-fluoro-5-phenyl-6,7-dihydro-5H-pyrrolo[1,2-b][1,2,4]triazol-2-yl]methanone]
5.58 | O=C(c1cc2n(n1)CC[C@@H]2c1ccccc1)N1CC(F)(F)C1 [Example 9, (3,3-difluoroazetidin-1-yl)-[(4R)-4-phenyl-5,6-dihydro-4H-pyrrolo[1,2-b]pyrazol-2-yl]methanone]
5.17 | CCC(F)(F)n1ncc2cnc(C(=O)N3CC(F)(F)C3)cc21 [Example 103]

SMILES | pKi
O=C(c1nc2n(n1)[C@@H](c1ccccc1)C[C@H]2F)N1CCC[C@@H]1C(F)F (single isomer, unassigned) [Example 65] | 7.44
